One test has as its target Wee1 kinase (Homo sapiens, UniProt P30291). Kind of test: Wee1 Binding Assay (FRET). How it is done:
Wee 1 kinase was determined by using Fluorescence Resonance Energy Transfer (FRET) assay. […] The plate was shaken for 30 seconds, incubated for 60 min at RT, and recorded on fluorescence plate reader.

For another test, the system named is H23 cells. Kind of test: H23 Cellular Proliferation Assay (CellTiter-Glo). Format: cell-based. Particulars: Homo sapiens, NCI-H23, 96 h, 4 days, read-out: H23 CTG IC50. How it is done:
H23 Cellular Proliferation Assay
Cells were treated with compounds diluted in DMSO and a 9 point 5-fold serial dilutions. Plates were placed in 37° C., 5% CO2 for to incubate for 4 days. Before they were developed by adding 100 μL of CellTiter-Glo reagent (Promega) to the assay plate, plates were shaken briefly for 2 mins and allowed to incubate at rt for 10 mins. The plates are read with a M5e plate reader according to CellTiter-Glo protocol. The GraphPad Prism software is used to get IC50 values.
(In general: ATP-based viability assays read luminescence as a measure of living cells.)

The mark [1] stands for this setting: FRET, Wee1 kinase 2 nM, tracer 178 50 nM, 60 min at RT, read-out: Wee1 enzymatic IC50.

Where two headings read alike, the source gives them in different places. Bounds are passed on as bounds.

Sequence of Wee1 kinase (P30291 whole entry): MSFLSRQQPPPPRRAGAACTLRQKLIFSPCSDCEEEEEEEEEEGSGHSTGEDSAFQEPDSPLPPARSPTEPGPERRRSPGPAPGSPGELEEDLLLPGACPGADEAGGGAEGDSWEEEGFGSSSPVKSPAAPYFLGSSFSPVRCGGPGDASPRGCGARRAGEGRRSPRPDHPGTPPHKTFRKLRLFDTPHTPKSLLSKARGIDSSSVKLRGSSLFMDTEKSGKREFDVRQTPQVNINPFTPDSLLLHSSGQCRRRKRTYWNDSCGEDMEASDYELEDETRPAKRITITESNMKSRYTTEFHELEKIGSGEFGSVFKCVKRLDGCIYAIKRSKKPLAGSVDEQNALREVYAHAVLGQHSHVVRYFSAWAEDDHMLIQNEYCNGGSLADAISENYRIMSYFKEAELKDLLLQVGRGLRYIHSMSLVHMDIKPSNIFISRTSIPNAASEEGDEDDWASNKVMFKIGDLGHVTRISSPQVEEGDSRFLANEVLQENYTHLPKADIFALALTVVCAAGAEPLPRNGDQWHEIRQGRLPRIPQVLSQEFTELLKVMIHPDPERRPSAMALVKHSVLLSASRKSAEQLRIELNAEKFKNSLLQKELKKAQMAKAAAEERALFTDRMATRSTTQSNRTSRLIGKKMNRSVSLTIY

By IC50 is commonly meant the concentration that gives 50% inhibition. Take `C=CCn1c(=O)c2cnc(Nc3ccc(N4CCN(C)CC4)cc3)nc2n1-c1ccc2c(n1)[C@@H](O)CC2` (single isomer, unassigned) [Example 1A]: the IC50 on Wee1 kinase was less than 10 nM; in the test on H23 cells, more than 1000 nM. At Wee1 kinase, `C=CCn1c(=O)c2cnc(Nc3ccc(N4CCN(C)CC4)cc3)nc2n1-c1ccc2c(n1)[C@H](O)CC2` (single isomer, unassigned) [Example 1B] returned an IC50 of less than 10 nM. Regarding `C=CCn1c(=O)c2cnc(Nc3ccc(N4CCN(C)CC4)cc3)nc2n1-c1ccc2c(n1)[C@@](C)(O)CC2` (single isomer, unassigned) [Example 2A], the half-maximal inhibitory concentration (IC50) at Wee1 kinase was less than 10 nM; in the test with H23 cells, more than 1000 nM. Regarding `C=CCn1c(=O)c2cnc(Nc3ccc(N4CCN(C)CC4)cc3)nc2n1-c1ccc2c(n1)[C@](C)(O)CC2` (single isomer, unassigned) [Example 2B], the IC50 on Wee1 kinase is less than 10 nM; in the test on H23 cells, 100 to 1000 nM. Taken in the same sequence, the figures for `C=CCn1c(=O)c2cnc(Nc3ccc(N4CCN(C)CC4)cc3)nc2n1-c1ccc2c(n1)[C@](O)(C(F)(F)F)CC2` (single isomer, unassigned) [Example 3A] were less than 10 nM and more than 1000 nM. The corresponding values for `C=CCn1c(=O)c2cnc(Nc3ccc(N4CCN(C)CC4)cc3)nc2n1-c1ccc2c(n1)[C@@](O)(C(F)(F)F)CC2` (single isomer, unassigned) [Example 3B] are less than 10 nM and 100 to 1000 nM. The corresponding values for `C=CCn1c(=O)c2cnc(Nc3ccc(N4CCN(C)CC4)cc3)nc2n1-c1ccc2c(n1)[C@@](C)(O)CO2` (single isomer, unassigned) [Example 4A] are less than 10 nM and more than 1000 nM. For the compound `C=CCn1c(=O)c2cnc(Nc3ccc(N4CCN(C)CC4)cc3)nc2n1-c1ccc2c(n1)[C@](C)(O)CO2` (single isomer, unassigned) [Example 4B], the IC50 on Wee1 kinase is less than 10 nM; in the test on H23 cells, more than 1000 nM. `C=CCn1c(=O)c2cnc(Nc3ccc(N4CCN(C)CC4)cc3)nc2n1-c1ccc2c(n1)[C@](O)(CC)CC2` (single isomer, unassigned) [Example 9A]: the IC50 was less than 10 nM on Wee1 kinase and 100 to 1000 nM in the test on H23 cells. `C=CCn1c(=O)c2cnc(Nc3ccc(N4CCN(C)CC4)cc3)nc2n1-c1ccc2c(n1)[C@@](O)(CC)CC2` (single isomer, unassigned) [Example 9B]: the figures for the IC50 at Wee1 kinase and in the test on H23 cells were less than 10 nM and 100 to 1000 nM, respectively. `C=CCn1c(=O)c2cnc(Nc3ccc(N4CCN(C)CC4)c(C)c3)nc2n1-c1ccc2c(n1)[C@@](C)(O)CC2` (single isomer, unassigned) [Example 10A]: the IC50 was less than 10 nM on Wee1 kinase and 100 to 1000 nM with H23 cells. The corresponding values for `C=CCn1c(=O)c2cnc(Nc3ccc(N4CCN(C)CC4)c(C)c3)nc2n1-c1ccc2c(n1)[C@](C)(O)CC2` (single isomer, unassigned) [Example 10B] are less than 10 nM and 100 to 1000 nM. Regarding `C=CCn1c(=O)c2cnc(Nc3ccc(N4CCN(C)CC4)c(F)c3)nc2n1-c1ccc2c(n1)[C@@](C)(O)CC2` (single isomer, unassigned) [Example 11A], the IC50 on Wee1 kinase (setting [1]) was less than 10 nM; with H23 cells, more than 1000 nM. Take `C=CCn1c(=O)c2cnc(Nc3ccc(N4CCNCC4)cc3)nc2n1-c1ccc2c(n1)[C@@](C)(O)CCC2` (single isomer, unassigned) [Example 28A]: the IC50 with H23 cells fell in the range of 100 to 1000 nM. Still for that read-out and setting: to `C=CCn1c(=O)c2cnc(Nc3ccc(N4CCNCC4)cc3)nc2n1-c1ccc2c(n1)[C@](C)(O)CCC2` (single isomer, unassigned) [Example 28B] belongs 100 to 1000 nM. Still for that read-out and setting: the figure for `C=CCn1c(=O)c2cnc(Nc3ccc4c(c3)CNCC43CC3)nc2n1-c1ccc2c(n1)[C@@](C)(O)CCC2` (single isomer, unassigned) [Example 31A] is less than 100 nM.

As to `C=CCn1c(=O)c2cnc(Nc3ccc4c(c3)CNCC43CC3)nc2n1-c1ccc2c(n1)[C@](C)(O)CCC2` (single isomer, unassigned) [Example 31B], the IC50 in the test on H23 cells was less than 100 nM. Take `C=CCn1c(=O)c2cnc(Nc3ccc(N4CCN(C)CC4)cc3)nc2n1-c1cc2c(cn1)CC[C@]2(C)O` (single isomer, unassigned) [Example 37A]: the IC50 with H23 cells is more than 1000 nM.

`C=CCn1c(=O)c2cnc(Nc3ccc(N4CCN(C)CC4)cc3)nc2n1-c1cc2c(cn1)CC[C@@]2(C)O` (single isomer, unassigned) [Example 37B]: the half-maximal inhibitory concentration (IC50) in the test with H23 cells was more than 1000 nM.

`C=CCn1c(=O)c2cnc(Nc3ccc(N4CCN(C)CC4)cc3)nc2n1-c1ccc2c(n1)[C@](O)(C(C)(F)F)CC2` (single isomer, unassigned) [Example 38A]: the IC50 in the test with H23 cells was more than 1000 nM. Still for that read-out and setting: the figure for `C=CCn1c(=O)c2cnc(Nc3ccc(N4CCN(C)CC4)cc3)nc2n1-c1ccc2c(n1)[C@@](O)(C(C)(F)F)CC2` (single isomer, unassigned) [Example 38B] is 100 to 1000 nM; for `C=CCn1c(=O)c2cnc(Nc3ccc4c(ccn4C4CCN(C)CC4)c3)nc2n1-c1ccc2c(n1)[C@](O)(CC)CC2` (single isomer, unassigned) [Example 39A] it is 100 to 1000 nM. Regarding `C=CCn1c(=O)c2cnc(Nc3ccc4c(ccn4C4CCN(C)CC4)c3)nc2n1-c1ccc2c(n1)[C@@](O)(CC)CC2` (single isomer, unassigned) [Example 39B], the IC50 in the test on H23 cells lay in the range of 100 to 1000 nM. The same measure, in the same setting: to `C=CCn1c(=O)c2cnc(Nc3ccc(C4=CCN(C)CC4)c(C)c3)nc2n1-c1ccc2c(n1)[C@](O)(CC)CC2` (single isomer, unassigned) [Example 40A] belongs 100 to 1000 nM; to `C=CCn1c(=O)c2cnc(Nc3ccc(C4=CCN(C)CC4)c(C)c3)nc2n1-c1ccc2c(n1)[C@@](O)(CC)CC2` (single isomer, unassigned) [Example 40B], less than 100 nM.

As to `C=CCn1c(=O)c2cnc(Nc3ccc(N4CCN(C)CC4)cc3)nc2n1-c1ccc2c(n1)[C@@](C)(NC(C)=O)CCC2` (single isomer, unassigned) [Example 41A], the IC50 with H23 cells is more than 1000 nM. On the same count and under the same terms, to `C=CCn1c(=O)c2cnc(Nc3ccc(N4CCN(C)CC4)cc3)nc2n1-c1ccc2c(n1)[C@](C)(NC(C)=O)CCC2` (single isomer, unassigned) [Example 41B] belongs more than 1000 nM; to `C=CCn1c(=O)c2cnc(Nc3ccc(N4CCN(C)CC4)cc3)nc2n1-c1cccc(C(C)(C)O)n1` [AZD1775, 2-allyl-1-(6-(2-hydroxypropan-2-yl)pyridin-2-yl)-6-(4-(4-methylpiperazin-1-yl)phenylamino)-1,2-dihydropyrazolo[3,4-d]pyrimidin-3-one, reference compound], 100 to 1000 nM; to `C=CCn1c(=O)c2cnc(Nc3ccc(N4CCNCC4)cc3)nc2n1-c1ccc2c(n1)[C@@](O)(CC)CC2` [Example 14, (R)-2-allyl-1-(7-ethyl-7-hydroxy-6,7-dihydro-5H-cyclopenta[b]pyridin-2-yl)-6-((4-(piperazin-1-yl)phenyl)amino)-1,2-dihydro-3H-pyrazolo[3,4-d]pyrimidin-3-one], 100 to 1000 nM. As for `C=CCn1c(=O)c2cnc(Nc3ccc(N4CCN(C)CC4)cc3)nc2n1-c1ccc2c(n1)C(=O)NC2` [Example 34, 2-allyl-6-((4-(4-methylpiperazin-1-yl)phenyl)amino)-1-(7-oxo-6,7-dihydro-5H-pyrrolo[3,4-b]pyridin-2-yl)-1,2-dihydro-3H-pyrazolo[3,4-d]pyrimidin-3-one], on Wee1 kinase (setting [1]), the IC50 was less than 10 nM.
